Patent US11202792B2, “CD99 inhibitors and their uses” (GEORGETOWN UNIVERSITY, priority 2016, dated 2021)
Read-outs that look alike come from different tables or passages of the source.

Experiments:
[1] = molecular target: T1, CD99-ECD (extracellular domain of human CD99) (Homo sapiens, UniProt P14209); experiment: SPR binding, CD99-ECD purified from bacteria
T1 construct: the extracellular domain (Asp23-Asp122) of human CD99; made in house; host or cells: Escherichia coli BL21 (DE3)
T1 sequence (P14209 23-122): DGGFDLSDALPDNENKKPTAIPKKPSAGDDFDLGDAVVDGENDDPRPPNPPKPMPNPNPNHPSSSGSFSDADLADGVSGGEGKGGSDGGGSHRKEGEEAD
Description: The Champion™ pET104 BioEase™ Gateway® Expression System (Invitrogen (Carlsbad, Calif.)) was used to produce CD99-ECD fused with a N-terminal biotin tag, as directed by the manufacturer's instructions. Briefly, the DNA sequence encoding the extracellular domain (Asp23-Asp122) of human CD99 was amplified by PCR using pcDNA3.1 expression vector (Life Technologies (Carlsbad, Calif.)) carrying the full-length human CD99 cDNA transcript variant 1 as template. The primers were designed to include an additional C-terminal 6×His tag in the protein. The PCR product was gel purified with a QIAquick gel extraction kit (Qiagen (Hilden, Germany)) and subcloned into the pDONR 221 entry vector. The entry clone was then subjected to a recombination reaction with pET104.1-DEST destination vector, an expression vector with a N-terminal BioEase tag. The presence of an insert was confirmed by DNA sequencing.
CD99-ECD was expressed in Escherichia coli BL21 (DE3) cells. A saturated overnight culture of cells was diluted by 20-fold into fresh LB medium containing 100 μg/mL ampicillin. To induce the expression of CD99-ECD, cells were grown to OD600nm 0.5-0.7 at 37° C. and induced by the addition of isopropyl-β-D-thiogalactopyranoside to a final concentration of 1 mmol/L. The cultures were grown for an additional 3 h at 37° C. Cells were harvested by centrifugation at 8,000×g for 15 min, resuspended in 50 mmol/L sodium phosphate buffer, pH 7.4, containing 500 mmol/L NaCl, 10 mmol/L imidazole and 1 Complete EDTA-free protease inhibitor tablet/50 mL (Roche Diagnostics), and lysed by sonication. […] Protein fractions were finally eluted with a linear gradient of imidazole (10 to 1000 mmol/L) in the same buffer. The purity of the protein was assessed by SDS-PAGE followed by Coomassie staining. The eluted fractions were stored at −80° C. for further use. […]

[2] = test system: leukemia cell lines MOLT-4 and Jurkat; experiment: Cell viability IC50 panel, leukemia cell lines; type: cell-based; settings: Homo sapiens
Procedure: (§1) The plate was installed into the RTCA system, and the electrical impedance (represented as cell index) was measured every 10 min.
Therefore, two leukemia cell lines, MOLT-4 and Jurkat, were included as positive controls in this experiment.

A673 ES cells = experiment: Cell viability IC50, A673; type: cell-based; settings: Homo sapiens
Procedure: as §1
To investigate the relationship between the level of CD99 expression and drug sensitivity, the endogenous expression of CD99 was determined in a panel of 9 ES and 13 non-ES cell lines. The recombinant purified CD99-ECD protein was used to generate standard curves for immunoquantification of CD99 expression by immunoblotting (FIGS. 6B and 6C).

[3] = test system: TC-71, 6647 and RDES ES cells; experiment: Cell cycle and cell death analysis by flow cytometry, ES cells; type: cell-based, human; settings: 48 h; for hypodiploid sub-G1 peak: only in ES cells compared with U-2 OS
Procedure: For the evaluation of cell cycle, cell cultures were incubated with 10 μmol/L bromodeoxyuridine (BrdU) (Sigma-Aldrich) for 1 h in a CO2 atmosphere at 37° C. Harvested cells were fixed in ice-cold 70% ethanol for 30 min. After DNA denaturation with 2 N HCl for 30 min at room temperature, cells were washed with 0.1 M Na2B4O7, pH 8.5 and processed for indirect immunofluorescence staining, using α-BrdU (BD Biosciences (San Jose, Calif.)) diluted 1:4 as a primary MAb and α-mouse FITC (1:100—Thermo Scientific (Waltham, Mass.)) as a secondary antibody. After treatment with 0.5 mg/ml RNase and staining with 20 μg/ml propidium iodide, cells were and analyzed by flow cytometry (FACSCalibur; Becton Dickinson (Franklin Lakes, N.J.)) for cell cycle evaluation and for assessing cell death by DNA content analysis.

[4] = 48 h, read-out: average IC50 concentration for leukemia cell lines
[5] = MOLT-4 and Jurkat, read-out: IC50, leukemia cell lines

Compound | Kd [1] [nM] | IC50 [2, 4] [nM] | IC50 [2, 5] [nM] | IC50 (A673 ES cells) [nM] | cell cycle effect ([3]; ES cells) | hypodiploid sub-G1 peak [3] | total body weight (mouse, in vivo) | tolerability (TC-71 and SKES xenograft models, clofarabine 30 mg/kg in TC-71) | total body weight (weighed daily during treatment)
Nc1nc(Cl)nc2c1ncn2[C@H]1C[C@H](O)[C@@H](CO)O1 [cladribine] | 3800 ± 2400 | 340 ± 30 | < 1000 | 7420 | cell cycle arrest in S phase | significant increase | does not change | – | –
Nc1nc(Cl)nc2c1ncn2[C@@H]1O[C@H](CO)[C@@H](O)[C@@H]1F [clofarabine] | 4600 ± 3200 | 180 ± 10 | < 1000 | 1900 | – | significant increase | – | early deaths | does not change
